Laboratory results as given in article PMC5493349, “Quaternary structure is an essential component that contributes to the sophisticated allosteric regulation mechanism in a key enzyme from Mycobacterium tuberculosis” (PLoS ONE, 2017).

Key:
MtuDAH7PSF227D = MtuDAH7PSF227D (Mycobacterium tuberculosis, UniProt O53512, F227D); type: biochemical
MtuDAH7PSG232P = MtuDAH7PSG232P (Mycobacterium tuberculosis, UniProt O53512, G232P); type: biochemical
wild-type MtuDAH7PS [1] = biological target: T1, wild-type MtuDAH7PS (Mycobacterium tuberculosis, UniProt O53512); settings: cited from earlier work
wild-type MtuDAH7PS [2] = biological target: T1, wild-type MtuDAH7PS; type: biochemical

Row | SMILES | inhibition of dimeric variant MtuDAH7PSF227D (MtuDAH7PSF227D) | inhibition of dimeric variant MtuDAH7PSG232P (MtuDAH7PSG232P) | inhibition of wild-type enzyme by single amino acid, unsaturated E4P (wild-type MtuDAH7PS [1]) | inhibition of wild-type enzyme (wild-type MtuDAH7PS [2])
1 | N[C@@H](Cc1ccccc1)C(=O)O [Phe, L-Phe] | 50% | 50% | 50% | 
2 | N[C@@H](Cc1ccc(O)cc1)C(=O)O [Tyr, L-Tyr] | 40% | 40% | 47% | no inhibition
